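Growth conditions: 96-well plates. Treatment: test compound, 48 hours, 5 concentrations. Analysis: linear interpolation between bracketing concentrations; unreached endpoints set to highest concentration. TGI is the concentration that stops growth completely.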 *1 amine or outer side, *2 acyl side, *3 side chain or, on linkers, in order; H or OH if unused. Where a SMILES comes first, the peptide text is derived from it. [ ]: non-standard residue; d: D form. The star is where a group is joined. X31 = CC(=O)N(C)SCC(N[*:1])C(=O)[*:2]; X47 = CC(=O)N(C)SCC(N*)/C(O)=N\O; Cbz = O=C(OCc1ccccc1)*; Bn = c1ccc(C*)cc1; For = O=C*
Key:
Assay in all cases: DTP human tumour cell line panel, 48 h
A549 NSCLC = system: A549 NSCLC
CCRF-CEM leukemia = system: CCRF-CEM leukemia
DU-145 prostate = system: DU-145 prostate
HL-60(TB) leukemia = system: HL-60(TB) leukemia
HOP-92 NSCLC = system: HOP-92 NSCLC
HT29 colon = system: HT29 colon
MOLT-4 leukemia = system: MOLT-4 leukemia
NCI-H226 lung = system: NCI-H226 lung
NCI-H460 lung = system: NCI-H460 lung
OVCAR-3 ovarian = system: OVCAR-3 ovarian
OVCAR-5 ovarian = system: OVCAR-5 ovarian
RPMI-8226 leukemia = system: RPMI-8226 leukemia
RXF 393 renal = system: RXF 393 renal
SF-539 CNS = system: SF-539 CNS
SK-OV-3 ovarian = system: SK-OV-3 ovarian
SW-620 colon = system: SW-620 colon
TK-10 renal = system: TK-10 renal
U251 CNS = system: U251 CNS
UACC-62 melanoma = system: UACC-62 melanoma

| Compound | TGI (A549 NSCLC) [µM] | TGI (CCRF-CEM leukemia) [µM] | TGI (DU-145 prostate) [µM] | TGI (HL-60(TB) leukemia) [µM] | TGI (HOP-92 NSCLC) [µM] | TGI (HT29 colon) [µM] | TGI (MOLT-4 leukemia) [µM] | TGI (NCI-H226 lung) [µM] | TGI (NCI-H460 lung) [µM] | TGI (OVCAR-3 ovarian) [µM] | TGI (OVCAR-5 ovarian) [µM] | TGI (RPMI-8226 leukemia) [µM] | TGI (RXF 393 renal) [µM] | TGI (SF-539 CNS) [µM] | TGI (SK-OV-3 ovarian) [µM] | TGI (SW-620 colon) [µM] | TGI (TK-10 renal) [µM] | TGI (U251 CNS) [µM] | TGI (UACC-62 melanoma) [µM] |
| --- | --- | --- | --- | --- | --- | --- | --- | --- | --- | --- | --- | --- | --- | --- | --- | --- | --- | --- | --- |
| CC(=O)N(C)SCC(NC(=O)C(Cc1ccccc1)NC(=O)OCc1ccccc1)C(=O)NC(Cc1ccccc1)C(=O)NC(Cc1cn(C=O)c2ccccc12)C(=O)NC(CCCCNC(=O)OCc1ccccc1)C(=O)NC(C(=O)NC(CSN(C)C(C)=O)/C(O)=N\O)C(C)OCc1ccccc1 (stereo not given) (Cbz-F[X31]FW(For)K(Cbz)T(Bn)-X47; configuration not given here) | > 100 | > 100 | > 100 | > 100 | > 100 | > 100 | > 100 | > 100 | > 100 | > 100 | > 100 | > 100 | > 100 | > 100 | > 100 | > 100 | > 100 | > 100 | > 100 |
| CC1(C)CC(=O)C(CCC(=O)/C=C/c2ccccc2)C(=O)C1 | > 100 | > 100 | > 100 | > 100 | > 100 | > 100 | > 100 | > 100 | > 100 | > 100 | > 100 | > 100 | > 100 | > 100 | > 100 | > 100 | > 100 | > 100 | > 100 |
| CC(=O)OC1=c2ccccc2=C(O)C2C1C=NN2C(C)=O (stereo not given) | > 100 | > 100 | > 100 | > 100 | > 100 | > 100 | > 100 | > 100 | > 100 | > 100 | > 100 | > 100 | > 100 | > 100 | > 100 | > 100 | > 100 | > 100 | > 100 |
| Cc1c(C#N)c2nnn(-c3ccc(Cl)cc3)c(=O)n2c1-c1ccccc1 | > 40.3 | > 100 | 8.44 | > 57.3 | 25.7 | 0.49 | 42.3 | 2.02 | 3.71 | 0.772 | 32.1 | > 30.6 | 3.76 | 0.6 | 30 | 31.4 | 55 | 3 | 18.5 |
| NNC(=O)CSc1nc2ccc(I)cc2c(=O)n1Cc1ccccc1 | 54.6 | 19 | > 100 | 61 | 57 | 44.8 | 45.3 | 41.9 | 44.7 | 54.9 | 40.9 | 54.7 | 26.5 | 52 | 32.7 | > 100 | 38.7 | 40.8 | 40.4 |
| O=C(Nn1c(-c2ccccc2)nc2ccccc2c1=O)c1ccc(CS)cc1 | > 100 | 39.3 | > 100 | 50.1 | > 100 | > 100 | 62.4 | > 100 | > 100 | > 100 | > 100 | > 100 | > 100 | 67.7 | > 100 | > 100 | > 100 | > 100 | > 100 |
| CCOC(=O)CN1C(=O)c2c(c(C)n(-c3ccccc3)c2C)C1=O | > 100 | > 100 | > 100 | > 100 | > 100 | > 100 | > 100 | > 100 | > 100 | > 100 | > 100 | > 100 | > 100 | > 100 | > 100 | > 100 | > 100 | > 100 | > 100 |
| O=C(CN1CCN(Cc2ccccc2)CC1)c1ccc2[nH]c(=O)oc2c1 | > 100 | > 100 | > 100 | > 100 | > 100 | > 100 | > 100 | > 100 | > 100 | > 100 | > 100 | > 100 | > 100 | > 100 | > 100 | > 100 | > 100 | > 100 | > 100 |
| Nc1sc2c(c1C(=O)c1ccc(Cl)c(Cl)c1)CCCC2 | > 100 | > 100 | > 100 | 65.3 | > 100 | > 100 | > 100 | > 100 | > 100 | > 100 | > 100 | 78.1 | > 100 | > 100 | > 100 | > 100 | > 100 | > 100 | > 100 |
| C=CCN1CCC(OC(=O)C(O)(C#CC)C2CCCC2)CC1 (stereo not given) | > 100 | > 100 | > 100 | > 100 | > 100 | > 100 | > 100 | > 100 | > 100 | > 100 | > 100 | > 100 | > 100 | > 100 | > 100 | > 100 | > 100 | > 100 | > 100 |

— PubChem BioAssay (NCI)
